In one data set the target is A2AAR. The conditions noted are these: rat (r), archival data ref 22, 24–27, cited from earlier work.
Data set [1] concerns the target A1AR. The conditions noted are these: read-out: A1AR Ki; rat (r); archival data ref 22, 24–27; cited from earlier work.
The target in data set [2] is A3AR. The conditions noted are these: read-out: A3AR Ki; rat (r); archival data ref 22, 24–27; cited from earlier work.
Data set [3] has as its target T1, A3AR (Homo sapiens, UniProt P0DMS8).
T1 sequence (P0DMS8 1-318): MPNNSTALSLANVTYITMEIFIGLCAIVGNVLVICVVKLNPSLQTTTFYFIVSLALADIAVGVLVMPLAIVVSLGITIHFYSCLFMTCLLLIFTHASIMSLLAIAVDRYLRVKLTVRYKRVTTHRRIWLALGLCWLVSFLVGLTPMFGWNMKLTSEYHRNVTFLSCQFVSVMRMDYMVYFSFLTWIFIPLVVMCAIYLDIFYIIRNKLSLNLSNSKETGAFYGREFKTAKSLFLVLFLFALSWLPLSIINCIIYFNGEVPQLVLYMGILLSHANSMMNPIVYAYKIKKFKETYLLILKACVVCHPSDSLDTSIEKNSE
The conditions noted are these: read-out: A3AR Ki, archival data ref 22, 24–27; cited from earlier work.

The target of data set [4] is T2, 5HT2AR (Homo sapiens, UniProt P28223). As to the kind of experiment: 5HT2AR functional calcium mobilization assay. The class given is cell-based. The conditions noted are these: 10 µM; result in words. (In general: A change in cytosolic calcium serves as a functional read-out for many receptors and channels.)
For data set [5], the target named is T3, 5HT2CR (Homo sapiens, UniProt P28335).
T3 sequence (P28335 33-458): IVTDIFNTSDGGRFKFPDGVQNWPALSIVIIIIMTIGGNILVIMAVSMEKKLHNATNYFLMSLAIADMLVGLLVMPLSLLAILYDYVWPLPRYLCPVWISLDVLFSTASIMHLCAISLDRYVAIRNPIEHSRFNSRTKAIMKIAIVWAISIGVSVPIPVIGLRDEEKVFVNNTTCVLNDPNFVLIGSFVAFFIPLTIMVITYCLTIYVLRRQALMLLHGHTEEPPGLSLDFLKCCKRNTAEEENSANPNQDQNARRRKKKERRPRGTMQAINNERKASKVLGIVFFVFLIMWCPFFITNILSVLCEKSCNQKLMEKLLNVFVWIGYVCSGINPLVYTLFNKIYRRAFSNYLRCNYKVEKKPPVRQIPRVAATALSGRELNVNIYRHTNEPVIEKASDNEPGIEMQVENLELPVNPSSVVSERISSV
Briefly: 5HT2CR functional calcium mobilization assay. The class given is cell-based. The conditions noted are these: 10 µM; result in words.

The next data set can be described thus: CACO cell permeability. The class given is in vitro ADME. The conditions noted are these: human.
A short description of data set [6]: Stability in human plasma. It is filed as in vitro ADME. The conditions noted are these: for remaining at 2 h: human, plasma, Stability in plasma, % remaining at 120 min.
The target in data set [7] is T4, 5HT2BR (Homo sapiens, UniProt P41595). The class given is cell-based.
Data set [8] concerns 5 CYP isozymes (A2, 2C9, 2C19, 2D6, 3A4). As to the kind of experiment: Inhibition of 5 CYP isozymes. It is filed as in vitro ADME. The conditions noted are these: human.
Data set [9] in a line: Cytotoxicity in HepG2 cells. The class given is cell-based. The conditions noted are these: human.
Another data set concerns CACO-2 cells. As to the kind of experiment: CACO cell permeability. It is filed as in vitro ADME. The conditions noted are these: CACO-2 cells. Background: Passage across Caco-2 layers is used to estimate intestinal permeability.
In data set [10] the target is T4, 5HT2BR. The class given is binding.
Data set [11] deals with T1, A3AR. As to the kind of experiment: A3AR binding, [125I]46.
The target in the next data set is human 5HT5AR (Homo sapiens, UniProt P47898). Briefly: 5HT5AR binding. The conditions noted are these: result in words.
Data set [12] addresses T5, A1AR (Homo sapiens, UniProt P30542).
T5 sequence (P30542 1-326): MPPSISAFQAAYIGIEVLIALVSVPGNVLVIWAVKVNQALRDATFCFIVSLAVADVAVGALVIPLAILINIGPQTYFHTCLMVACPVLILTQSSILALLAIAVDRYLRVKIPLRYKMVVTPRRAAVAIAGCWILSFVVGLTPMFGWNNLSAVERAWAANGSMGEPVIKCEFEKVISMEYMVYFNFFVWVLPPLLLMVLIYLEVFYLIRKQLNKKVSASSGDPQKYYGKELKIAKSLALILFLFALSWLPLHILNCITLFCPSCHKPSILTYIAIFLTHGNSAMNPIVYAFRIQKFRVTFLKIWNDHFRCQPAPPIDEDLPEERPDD
As to the kind of experiment: A1AR binding, [3H]N6-phenylisopropyladenosine 45.

Data set [13] concerns the target T3, 5HT2CR. As to the kind of experiment: 5HT2CR radioligand binding, [3H]mesulergine 44, Flp IN HEK cell membranes. The conditions noted are these: 5HT2CR Ki, mean ± SEM; ^d n = 1.
The target of the next data set is hA2AAR (Homo sapiens, UniProt P29274). As to the kind of experiment: A2AAR binding, [3H]47, HEK293 cell membranes. The conditions noted are these: read-out: A2AAR % inhibition.
In data set [14] the target is T2, 5HT2AR. Briefly: 5HT2AR radioligand binding, [3H]ketanserin, HEKT cell membranes. The conditions noted are these: read-out: 5HT2AR % inhibition.
Data set [15] deals with T3, 5HT2CR. The conditions noted are these: read-out: 5HT2CR Ki; archival data ref 8, 9, 22, 24–27; cited from earlier work.
The target of data set [16] is T2, 5HT2AR. The conditions noted are these: inhibition of binding at 10 µM; archival data ref 9, 22, 24–27; cited from earlier work.

“Also recorded” adds a separate entry of the source. Read-outs that look alike come from different tables or passages of the source. Marks after values point to notes of the source that are not given here.

T4 sequence (P41595 whole entry): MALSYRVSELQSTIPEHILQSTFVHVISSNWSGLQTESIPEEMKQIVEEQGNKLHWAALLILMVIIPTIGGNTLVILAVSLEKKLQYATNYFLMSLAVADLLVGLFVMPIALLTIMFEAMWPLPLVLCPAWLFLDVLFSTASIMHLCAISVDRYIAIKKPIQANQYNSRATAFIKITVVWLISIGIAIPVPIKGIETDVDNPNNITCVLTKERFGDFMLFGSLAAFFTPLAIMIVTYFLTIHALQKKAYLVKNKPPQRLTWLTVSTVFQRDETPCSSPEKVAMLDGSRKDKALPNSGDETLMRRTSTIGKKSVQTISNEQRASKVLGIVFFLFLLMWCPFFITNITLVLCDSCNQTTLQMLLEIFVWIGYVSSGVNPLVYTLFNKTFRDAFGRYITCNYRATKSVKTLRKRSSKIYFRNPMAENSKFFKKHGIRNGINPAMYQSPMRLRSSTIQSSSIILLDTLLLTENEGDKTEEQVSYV
T2 sequence (P28223 whole entry): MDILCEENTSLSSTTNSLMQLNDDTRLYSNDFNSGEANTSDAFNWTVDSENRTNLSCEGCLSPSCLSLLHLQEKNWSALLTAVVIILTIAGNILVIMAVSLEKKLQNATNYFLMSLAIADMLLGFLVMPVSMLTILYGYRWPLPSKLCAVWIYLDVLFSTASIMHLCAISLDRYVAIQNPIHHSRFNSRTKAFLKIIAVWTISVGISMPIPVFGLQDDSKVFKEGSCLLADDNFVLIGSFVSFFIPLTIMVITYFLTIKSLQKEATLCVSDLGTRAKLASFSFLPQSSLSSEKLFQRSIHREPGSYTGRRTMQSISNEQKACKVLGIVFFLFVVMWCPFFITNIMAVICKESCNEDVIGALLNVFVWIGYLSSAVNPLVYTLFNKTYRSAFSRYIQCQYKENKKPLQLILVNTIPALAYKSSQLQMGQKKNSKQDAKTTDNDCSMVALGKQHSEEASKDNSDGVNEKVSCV
hA2AAR, sequence (P29274 whole entry): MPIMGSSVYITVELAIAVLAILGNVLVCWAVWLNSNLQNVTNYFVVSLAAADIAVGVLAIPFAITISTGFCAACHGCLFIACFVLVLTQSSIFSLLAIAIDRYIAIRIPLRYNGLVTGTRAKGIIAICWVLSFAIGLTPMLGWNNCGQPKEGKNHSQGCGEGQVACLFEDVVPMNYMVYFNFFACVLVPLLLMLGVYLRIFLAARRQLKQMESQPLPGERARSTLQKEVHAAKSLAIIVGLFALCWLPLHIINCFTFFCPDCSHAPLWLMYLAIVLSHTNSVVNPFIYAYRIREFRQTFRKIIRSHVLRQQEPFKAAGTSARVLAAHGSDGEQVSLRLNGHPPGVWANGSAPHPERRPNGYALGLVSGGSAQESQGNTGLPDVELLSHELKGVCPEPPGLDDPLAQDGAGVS
human 5HT5AR, sequence (P47898 whole entry): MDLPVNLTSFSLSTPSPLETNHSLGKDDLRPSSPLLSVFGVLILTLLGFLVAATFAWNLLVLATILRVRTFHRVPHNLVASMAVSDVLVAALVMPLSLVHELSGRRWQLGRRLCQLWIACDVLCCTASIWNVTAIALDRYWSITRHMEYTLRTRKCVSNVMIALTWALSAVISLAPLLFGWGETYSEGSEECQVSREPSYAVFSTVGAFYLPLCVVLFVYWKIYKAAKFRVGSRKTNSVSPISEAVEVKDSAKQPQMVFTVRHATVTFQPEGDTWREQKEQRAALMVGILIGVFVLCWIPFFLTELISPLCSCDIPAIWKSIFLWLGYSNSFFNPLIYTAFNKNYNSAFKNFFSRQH

The Ki is a dissociation constant, usually derived from enzyme kinetics or from competition with a known ligand. Take `OC[C@H]1O[C@@H](n2cnc3c(NC(C4CC4)C4CC4)ncnc32)[C@H](O)[C@@H]1O` [compound 6]: at A2AAR (read-out: A2AAR Ki), the Ki was 1370 nM.
Consider `CNC(=O)[C@H]1O[C@@H](n2cnc3c(N)ncnc32)[C@H](O)[C@@H]1O` [compound 7, reference compound], for which the Ki on A1AR [1] is 84 nM.
On to `Nc1nc(Cl)nc2c1ncn2[C@H]1[C@H](O)[C@H](O)[C@]2(CO)C[C@H]12` [compound 12], for which the Ki at A1AR [1] was 273 nM; at A3AR [2] it was 85 nM.
As to `CNc1nc(Cl)nc2c1ncn2[C@H]1[C@H](O)[C@H](O)[C@]2(CO)C[C@H]12` [compound 13], in the data set with A2AAR (inhibition of binding at 10 µM), the A2AAR % inhibition was <10% (r) ^c. Besides, the results for the Ki on A3AR [3] and at A1AR [1] were 23 nM and 1470 nM, respectively.
With `OC[C@@]12C[C@@H]1[C@@H](n1cnc3c(NC(C4CC4)C4CC4)nc(Cl)nc31)[C@H](O)[C@@H]2O` [compound 14, (1R,2R,3S,4R,5S)-4-(2-Chloro-6-((dicyclopropylmethyl)amino)-9H-purin-9-yl)-1-(hydroxymethyl)bicyclo[3.1.0]hexane-2,3-diol], on 5HT2AR [4], the “agonist or antagonist activity at 5HT2AR” value is listed as “no activity as agonist or antagonist”. Also, the “agonist activity at 5HT2CR” value on 5HT2CR [5] is given as “no appreciable agonist or partial agonist activity”.
As a reminder, the Papp B→A is how fast a substance crosses the layer from the basolateral side. In general, Papp A→B refers to how fast a substance crosses the layer from the apical side. A higher Papp A→B goes with fast passage. For orientation: amount remaining means the share of the starting amount still present when the sample was taken. The term IC50 denotes the point on the concentration scale where inhibition reaches its midpoint. For orientation: CC50 means the concentration giving 50% cytotoxicity. A low value points to greater toxicity to the cells. For the compound `CNC(=O)[C@@]12C[C@@H]1[C@@H](n1cnc3c(NC(C4CC4)C4CC4)nc(Cl)nc31)[C@H](O)[C@@H]2O` [compound 23, (1S,2R,3S,4R,5S)-4-(2-Chloro-6-((dicyclopropylmethyl)amino)-9H-purin-9-yl)-2,3-dihydroxy-N-methylbicyclo[3.1.0]hexane-1-carboxamide], the Papp B→A in the data set “CACO cell permeability” (Caco-2) was determined as 46.2 ×10⁻⁶ cm/s. The Papp A→B in “CACO cell permeability” (Caco-2, Papp, A->B, CACO-2 cells) turned out to be 4.73 ×10⁻⁶ cm/s. In data set [6], the “Stability in plasma, % remaining at 120 min, Human” value is listed as 104% and the fraction remaining at 2 h was around 100%. At 5HT2AR [4], the “agonist or antagonist activity at 5HT2AR” value is “no activity as agonist or antagonist”. Besides, at 5HT2BR [7], the “agonist activity at 5HT2BR” value was “no appreciable agonist or partial agonist activity”. Besides, at 5HT2CR [5], the “agonist activity at 5HT2CR” value was “no appreciable agonist or partial agonist activity”. The same compound had an IC50 in data set [8] above 30000 nM. The CC50 in [9] is above 30000 nM.
Take `COC(=O)[C@@]12C[C@@H]1[C@@H](n1cnc3c(NC(C4CC4)C4CC4)nc(Cl)nc31)[C@H](O)[C@@H]2O` [compound 25, Methyl (1S,2R,3S,4R,5S)-4-(2-Chloro-6-((dicyclopropylmethyl)amino)-9H-purin-9-yl)-2,3-dihydroxybicyclo[3.1.0]hexane-1-carboxylate]: the “Papp, A->B” value with CACO-2 cells is given as 18.47 10^−6 cm/sec. Moreover, in data set [6], the “Stability in plasma, % remaining at 120 min, Human” value turned out to be 95.3% and the share remaining at 2 h is around 100%. Moreover, the “agonist or antagonist activity at 5HT2AR” value at 5HT2AR [4] is on record as “no activity as agonist or antagonist”. The “agonist activity at 5HT2BR” value at 5HT2BR [7] (10 µM, result in words) was “no appreciable agonist or partial agonist activity”. For the same compound, the “agonist activity at 5HT2CR” value on 5HT2CR [5] is listed as “no appreciable agonist or partial agonist activity”. The compound also returned an IC50 in [8] of at least 20000 nM. Also, the CC50 in data set [9] was above 30000 nM. The “ligand efficiency (LE) in 5HT2BR binding” value on 5HT2BR [10] is reported as 0.37.
With `CCOC(=O)[C@@]12C[C@@H]1[C@@H](n1cnc3c(NC(C4CC4)C4CC4)nc(Cl)nc31)[C@H](O)[C@@H]2O` [compound 26, Ethyl (1S,2R,3S,4R,5S)-4-(2-chloro-6-((dicyclopropylmethyl)amino)-9H-purin-9-yl)-2,3-dihydroxybicyclo[3.1.0]hexane-1-carboxylate], the “agonist or antagonist activity at 5HT2AR” value at 5HT2AR [4] is “did not display significant agonist or antagonist activity; also recorded: no activity as agonist or antagonist”. In addition, the “agonist activity at 5HT2BR” value on 5HT2BR [7] is “did not display significant; also recorded: no appreciable agonist or partial agonist activity”. Besides, at 5HT2CR [5], the “agonist activity at 5HT2CR” value was “did not display significant; also recorded: no appreciable agonist or partial agonist activity”.
In the case of `CCOC(=O)[C@@]12C[C@@H]1[C@@H](n1cnc3c(N(C)C)nc(Cl)nc31)[C@H](O)[C@@H]2O` [compound 29, Ethyl (1S,2R,3S,4R,5S)-4-(2-chloro-6-(dimethylamino)-9H-purin-9-yl)-2,3-dihydroxybicyclo[3.1.0]hexane-1-carboxylate], the “affinity at the A3AR” value at A3AR [11] (result in words) is “no measurable affinity”.
For the compound `CN(C)c1nc(Cl)nc2c1ncn2[C@H]1[C@H](O)[C@H](O)[C@]2(C(=O)O)C[C@H]12` [compound 30, (1S,2R,3S,4R,5S)-4-(2-Chloro-6-(dimethylamino)-9H-purin-9-yl)-2,3-dihydroxybicyclo [3.1.0]hexane-1-carboxylic acid], the “binding at the human 5HT5AR” value on human 5HT5AR is recorded as “bound weakly”.
For orientation: inhibition means how much of the control response was suppressed. Consider `NCCNC(=O)[C@@]12C[C@@H]1[C@@H](n1cnc3c(NC(C4CC4)C4CC4)nc(Cl)nc31)[C@H](O)[C@@H]2O` [compound 31, (1S,2R,3S,4R,5S)-N-(2-Aminoethyl)-4-(2-chloro-6-((dicyclopropylmethyl)amino)-9H-purin-9-yl)-2,3-dihydroxybicyclo[3.1.0]hexane-1-carboxamide], for which the Ki was determined as 2580 ± 1220 nM at A1AR [12], 142 ± 1 nM on 5HT2CR [13], 8110 ± 1270 nM on A3AR [11] and 630 ± 146 nM on 5HT2BR [10]. In addition, the inhibition at 10 µM at hA2AAR is 23 ± 5%; on 5HT2AR [14], below 10%.
Consider `NCCCNC(=O)[C@@]12C[C@@H]1[C@@H](n1cnc3c(NC(C4CC4)C4CC4)nc(Cl)nc31)[C@H](O)[C@@H]2O` [compound 32, (1S,2R,3S,4R,5S)-N-(3-Aminopropyl)-4-(2-chloro-6-((dicyclopropylmethyl)amino)-9H-purin-9-yl)-2,3-dihydroxybicyclo[3.1.0]hexane-1-carboxamide], for which the inhibition at 10 µM on A1AR [12] (read-out: A1AR % inhibition) was 45 ± 4%; on hA2AAR, 26 ± 5%; on 5HT2AR [14], below 10%; on A3AR [11] (read-out: A3AR % inhibition), 55 ± 1%. Also, the Ki came out at 137 ± 19 nM on 5HT2CR [13] and 1120 ± 310 nM at 5HT2BR [10].
Turning to `CNC(=O)[C@@]12C[C@@H]1[C@@H](n1cnc3c(NCc4cccc(Cl)c4)nc(Cl)nc31)[C@H](O)[C@@H]2O` [compound 35], at 5HT2CR [15], the Ki was 168 ± 47 nM. In addition, the 5HT2AR % inhibition on 5HT2AR [16] was 35%.
For the compound `CNC(=O)[C@@]12C[C@@H]1[C@@H](n1cnc3c(N(C)C)nc(C#Cc4ccc(Cl)s4)nc31)[C@H](O)[C@@H]2O` [compound 42], the “reduction of A3AR affinity” value at A3AR [11] (39 vs. 42) is reported as 34 fold.
